For four molecules, carcinogen call results are on record in PubChem BioAssay AID1259411 (Chemical Carcinogenesis Research Information System (CCRIS), 2018).

The structures appear in SMILES notation. Active and inactive are the calls of the source. No rule for the calls is given here.

For this data set, the system named is rodent carcinogenicity bioassays, tumor incidence. As to the kind of experiment: CCRIS carcinogenicity studies. In a few lines: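 Archive of carcinogenicity, mutagenicity, tumor promotion and tumor inhibition results drawn from journals, NCI reports and other sources, expert-reviewed; covers 1985-2011 and is no longer updated.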

In the case of `[O]=[Cr](=[O])([OH])[O][Cr](=[O])(=[O])[OH]`, the carcinogen call is, setting by setting: (Species: Mouse, Strain/Sex: B6C3F1/Female, Route: Oral, Dose: 0, 14.3, 57.3, 172, 516 mg/l of water, in drinking water for 2 yr (average daily dose of 0, 1.1, 3.9, 9, and 25 mg/kg), Tumor Site: Type of Lesion: Small intestine (duodenum, jejunum, ileum): Adenomas and carcinomas) “active; positive, authors describe as clear evidence of carcinogenic activity”; (Species: Mouse, Strain/Sex: B6C3F1/Male, Route: Oral, Dose: 0, 14.3, 28.6, 85.7, 257.4 mg/l of water, in drinking water for 2 yr (average daily dose of 0, 1.1, 2.6, 7, and 17 mg/kg, Tumor Site: Type of Lesion: Small intestine (duodenum, jejunum, ileum): Adenomas and carcinomas) “active; positive, authors describe as clear evidence of carcinogenic activity”; (Species: Rat, Strain/Sex: F344/N/Female, Route: Oral, Dose: 0, 14.3, 57.3, 172, 516 mg/l of water, in drinking water for 2 yr (average daily dose of 0, 0.7, 2.7, 7, and 20 mg/kg), Tumor Site: Type of Lesion: Mouth and tongue: Squamous cell papilloma and carcinoma) “active; positive, authors describe as clear evidence of carcinogenic activity”; (Species: Rat, Strain/Sex: F344/N/Male, Route: Oral, Dose: 0, 14.3, 57.3, 172, 516 mg/l of water, in drinking water for 2 yr (average daily dose of 0, 0.6, 2.2, 6, and 17 mg/kg), Tumor Site: Type of Lesion: Mouth and tongue: Squamous cell papilloma and carcinoma) “active; positive, authors describe as clear evidence of carcinogenic activity”.
As for `c1ccc2c(c1)[nH]c1ccccc12`, the carcinogen call is “active; positive” (Species: MOUSE, Strain/Sex: B6C3F1/FEMALE, Route: ORAL, Dose: 0.15, 0.3, 0.6% IN DIET FOR 96 WK, Dose: 0.15, 0.3, 0.6% IN DIET FOR 96 WK, Tumor Site: Type of Lesion: LIVER: HEPATOCELLULAR CARCINOMA); “active; positive” (Species: MOUSE, Strain/Sex: B6C3F1/MALE, Route: ORAL, Dose: 0.15, 0.3, 0.6% IN DIET FOR 96 WK, Dose: 0.15, 0.3, 0.6% IN DIET FOR 96 WK, Tumor Site: Type of Lesion: FORESTOMACH: PAPILLOMA, SQUAMOUS CELL CARCINOMA, LIVER: HEPATOCELLULAR CARCINOMA); “inactive; negative” (Species: MOUSE, Strain/Sex: CD-1/FEMALE, Route: INTRAPERITONEAL, Dose: 0, 1.75 UMOL/MOUSE (TOTAL DOSE) ADMINISTERED DURING DAYS 1, 8, AND 15 OF LIFE (STUDY DURATION: 52 WK)); “inactive; negative” (Species: MOUSE, Strain/Sex: CD-1/MALE, Route: INTRAPERITONEAL, Dose: 0, 1.75 UMOL/MOUSE (TOTAL DOSE) ADMINISTERED DURING DAYS 1, 8, AND 15 OF LIFE (STUDY DURATION: 52 WK)).
Consider `Cc1cc(-c2ccccc2C)ccc1N=O`, for which the carcinogen call was “active; positive” (Species: HAMSTER, Strain/Sex: SYRIAN/FEMALE, Route: SUBCUTANEOUS, Dose: 0.15 MMOL/KG IN PEANUT OIL 1/WK FOR 37 WK (TOTAL DOSE 5.6 MMOL/KG), Tumor Site: Type of Lesion: INJECTION SITE: RHABDOMYOSARCOMA, SPINDLE CELL CARCINOMA, PLEIOMORPHIC SARCOMA) and “active; positive” (Species: HAMSTER, Strain/Sex: SYRIAN/MALE, Route: SUBCUTANEOUS, Dose: 0.15 MMOL/KG IN PEANUT OIL 1/WK FOR 37 WK (TOTAL DOSE 5.6 MMOL/KG), Tumor Site: Type of Lesion: INJECTION SITE: RHABDOMYOSARCOMA, PLEIOMORPHIC SARCOMA).
Regarding `COc1ccc(CN(CCN(C)C)c2ccccn2)cc1`, the carcinogen call is, setting by setting: (Species: MOUSE, Strain/Sex: B6C3F1/FEMALE, Route: ORAL, Dose: 0, 150, 750, 1500 PPM IN DIET FOR 103 WK (STUDY DURATION: 103 WK), Dose: 0, 150, 750, 1500 PPM IN DIET FOR 103 WK (STUDY DURATION: 103 WK)) “inactive; negative”; (Species: MOUSE, Strain/Sex: B6C3F1/MALE, Route: ORAL, Dose: 0, 150, 750, 1500 PPM IN DIET FOR 103 WK (STUDY DURATION: 104 WK), Dose: 0, 150, 750, 1500 PPM IN DIET FOR 103 WK (STUDY DURATION: 104 WK)) “inactive; negative”; (Species: RAT, Strain/Sex: F344/FEMALE, Route: ORAL, Dose: 0, 300, 1500, 3000 PPM IN DIET FOR 2 YR (STUDY DURATION: 2 YR), Dose: 0, 300, 1500, 3000 PPM IN DIET FOR 2 YR (STUDY DURATION: 2 YR)) “inactive; negative”; (Species: RAT, Strain/Sex: F344/FEMALE, Route: ORAL, Dose: 0, 2000 PPM IN DIET (TOTAL DOSE: 120 G/KG) FOR 110 WK (STUDY DURATION: 133 WK)) “inactive; negative”; (Species: RAT, Strain/Sex: F344/FEMALE, Route: ORAL, Dose: 0, 2000 PPM IN DRINKING WATER (0.2%) 5 D/WK FOR 110 WK (TOTAL DOSE: 88 G/KG) (STUDY DURATION: 133 WK)) “inactive; negative”; (Species: RAT, Strain/Sex: F344/MALE, Route: ORAL, Dose: 0, 300, 1500, 3000 PPM IN DIET FOR 2 YR (STUDY DURATION: 2 YR), Dose: 0, 300, 1500, 3000 PPM IN DIET FOR 2 YR (STUDY DURATION: 2 YR)) “inactive; negative”. In addition, the carcinogen call (Species: RAT, Strain/Sex: F344/MALE, Route: ORAL, Dose: 0, 2000 PPM (0.2%) IN DRINKING WATER 5 D/WK FOR 110 WK (TOTAL DOSE: 55 G/KG) (STUDY DURATION: 133 WK)) was “inactive; negative”; the carcinogen call (Species: RAT, Strain/Sex: F344/MALE, Route: ORAL, Dose: O, 2000 PPM IN DIET (TOTAL DOSE: 110 G/KG) FOR 110 WK (STUDY DURATION: 133 WK)) is “inactive; negative”; the carcinogen call (Species: RAT, Strain/Sex: SPRAGUE-DAWLEY/FEMALE, Route: ORAL, Dose: 0, 500, 1000 PPM IN DRINKING WATER 5D/WK FOR LIFE (STUDY DURATION: 549-745 D), Dose: 0, 500, 1000 PPM IN DRINKING WATER 5D/WK FOR LIFE (STUDY DURATION: 549-745 D)) is “inactive; negative”; the carcinogen call (Species: RAT, Strain/Sex: SPRAGUE-DAWLEY/MALE, Route: ORAL, Dose: 0, 500, 1000 PPM IN DRINKING WATER 5D/WK FOR LIFE (STUDY DURATION: 496-611 D), Dose: 0, 500, 1000 PPM IN DRINKING WATER 5D/WK FOR LIFE (STUDY DURATION: 496-611 D)) is “inactive; negative”.
